Legend:
DU-4475 [1] = experiment: normalised viability (% of control), CellTiter-Blue; higher = more viable cells (about 100 = DMSO control); conditions: 10000 nM; incubation time: 72 h
Method: (§1)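 DSRT, CellTiter-Blue viability, 72 h incubation. Signal is normalised to DMSO and benzethonium chloride controls. Value is the normalised response at dose 9.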

HDQ-P1 [2] = experiment: as above; conditions: 10000 nM; incubation time: 72 h
Method: as §1

CAL-148 [3] = experiment: as above; conditions: 10000 nM; incubation time: 72 h
Method: as §1

CAL-51 [4] = experiment: as above; conditions: 10000 nM; incubation time: 72 h
Method: as §1

MDA-MB-453 [5] = experiment: as above; conditions: 10000 nM; incubation time: 72 h
Method: as §1

CAL-85-1 [6] = experiment: as above; conditions: 10000 nM; incubation time: 72 h
Method: as §1

DU-4475 [7] = experiment: as above; conditions: 3000 nM; incubation time: 72 h
Method: (§2)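 DSRT, CellTiter-Blue viability, 72 h incubation. Signal is normalised to DMSO and benzethonium chloride controls. Value is the normalised response at dose 8.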

HDQ-P1 [8] = experiment: as above; conditions: 3000 nM; incubation time: 72 h
Method: as §2

CAL-148 [9] = experiment: as above; conditions: 3000 nM; incubation time: 72 h
Method: as §2

CAL-51 [10] = experiment: as above; conditions: 3000 nM; incubation time: 72 h
Method: as §2

MDA-MB-453 [11] = experiment: as above; conditions: 3000 nM; incubation time: 72 h
Method: as §2

CAL-85-1 [12] = experiment: as above; conditions: 3000 nM; incubation time: 72 h
Method: as §2

BT-474 = experiment: drug sensitivity score (DSS), CellTiter-Blue viability (DSS (AUC-based score)); higher = stronger viability inhibition; extreme values may be limits of the assay; conditions: incubation time: 72 h
Method: (§3)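 DSRT with the CellTiter-Blue (resazurin reduction) viability readout, fluorescence 560/590 nm, 72 h incubation. Plates were normalised to DMSO and benzethonium chloride controls. DSS is computed from the area under the fitted dose-response curve (5 or 9 concentrations).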

DU-4475 [13] = experiment: as above; conditions: incubation time: 72 h
Method: as §3

HCC1599 = experiment: as above; conditions: incubation time: 72 h
Method: as §3

MDA-MB-231 = experiment: as above; conditions: incubation time: 72 h
Method: as §3

BT-549 = experiment: as above; conditions: incubation time: 72 h
Method: as §3

HDQ-P1 [14] = experiment: as above; conditions: incubation time: 72 h
Method: as §3

CAL-120 = experiment: as above; conditions: incubation time: 72 h
Method: as §3

CAL-148 [15] = experiment: as above; conditions: incubation time: 72 h
Method: as §3

CAL-51 [16] = experiment: as above; conditions: incubation time: 72 h
Method: as §3

MFM-223 = experiment: as above; conditions: incubation time: 72 h
Method: as §3

MDA-MB-453 [17] = experiment: as above; conditions: incubation time: 72 h
Method: as §3

CAL-85-1 [18] = experiment: as above; conditions: incubation time: 72 h
Method: as §3

HCC1143 = experiment: as above; conditions: incubation time: 72 h
Method: as §3

SK-BR-3 = experiment: as above; conditions: incubation time: 72 h
Method: as §3

MDA-MB-468 = experiment: as above; conditions: incubation time: 72 h
Method: as §3

| SMILES | normalised viability (DU-4475 [1]) | normalised viability (HDQ-P1 [2]) | normalised viability (CAL-148 [3]) | normalised viability (CAL-51 [4]) | normalised viability (MDA-MB-453 [5]) | normalised viability (CAL-85-1 [6]) | normalised viability (DU-4475 [7]) | normalised viability (HDQ-P1 [8]) | normalised viability (CAL-148 [9]) | normalised viability (CAL-51 [10]) | normalised viability (MDA-MB-453 [11]) | normalised viability (CAL-85-1 [12]) | drug sensitivity score (BT-474) | drug sensitivity score (DU-4475 [13]) | drug sensitivity score (HCC1599) | drug sensitivity score (MDA-MB-231) | drug sensitivity score (BT-549) | drug sensitivity score (HDQ-P1 [14]) | drug sensitivity score (CAL-120) | drug sensitivity score (CAL-148 [15]) | drug sensitivity score (CAL-51 [16]) | drug sensitivity score (MFM-223) | drug sensitivity score (MDA-MB-453 [17]) | drug sensitivity score (CAL-85-1 [18]) | drug sensitivity score (HCC1143) | drug sensitivity score (SK-BR-3) | drug sensitivity score (MDA-MB-468) |
| --- | --- | --- | --- | --- | --- | --- | --- | --- | --- | --- | --- | --- | --- | --- | --- | --- | --- | --- | --- | --- | --- | --- | --- | --- | --- | --- | --- |
| CCCS(=O)(=O)Nc1ccc(F)c(C(=O)c2c[nH]c3ncc(-c4ccc(Cl)cc4)cc23)c1F [Vemurafenib] | -0.32% | 68.6% | 94.1% | 103% | 75.5% | 78.3% | 4.66% | 83.1% | 89.1% | 107% | 87.3% | 75.7% | 0 | 17.3 | 0 | 0 | 0 | 1.56 | 0 | 0 | 0 | 0 | 0 | 2.25 | 0 | 0 | 0 |
| CCc1cncnc1N1CCN(Cc2nc3ccc(C(F)(F)F)cc3[nH]2)CC1 | 91.8% | 110% | 108% | 64% | 54.6% | 110% | 100% | 108% | 104% | 88.9% | 88.7% | 100% | 0 | 0 | 0 | 0 | 0 | 0 | 0 | 0 | 0 | 0 | 0 | 0 | 0 | 0 | 0 |
| C=CC(=O)Nc1cc2c(Nc3ccc(F)c(Cl)c3)ncnc2cc1OCCCN1CCOCC1 [Canertinib] | 6.91% | 1.8% | 29.8% | 4.95% | 10.3% | 2.97% | 103% | 27.5% | 60% | 79.9% | 28.2% | 34.3% | 18.5 | 2.6 | 1.14 | 8.24 | 6.86 | 14 | 6.69 | 7.47 | 3.66 | 5.96 | 15.9 | 11.9 | 3.63 | 27.4 | 13.9 |
| CC1=C(/C=C/C(C)=C/C=C/C(C)=C/C(=O)O)C(C)(C)CCC1 [Tretinoin] | 94.3% | 122% | 78.3% | 98% | 96.9% | 90.6% | 99% | 121% | 80.1% | 90.8% | 94.1% | 88.5% | 0 | 0 | 3.35 | 0 | 0 | 0 | 0 | 4.65 | 0 | 0 | 0 | 0 | 0 | 7.44 | 0 |
| O=C(Cc1ccc(-c2ccc(OCCN3CCOCC3)cc2)cn1)NCc1ccccc1 [KX2-391] | 15.5% | 47.6% | 34.2% | 12.5% | 38.1% | 45.4% | 8.65% | 41.6% | 24.2% | 11.3% | 36.2% | 42.1% | 11.2 | 25.9 | 7.95 | 24.2 | 24.1 | 16 | 23.4 | 22.6 | 24.2 | 17.9 | 21.5 | 19.6 | 23.1 | 25 | 16.6 |
| O=C(O)C(=O)O.[NH-][C@@H]1CCCC[C@H]1[NH-].[Pt+2] [Oxaliplatin] | 41.8% | 60.2% | 18.1% | 39% | 28.5% | 66.5% | 108% | 102% | 82.8% | 118% | 100% | 84.5% | 0 | 1.32 | 2.34 | 0 | 4 | 0 | 0 | 2.79 | 1.13 | 0 | 1.94 | 0 | 1.68 | 0.975 | 2.32 |
| COc1cc2nccc(Oc3ccc(NC(=O)Nc4cc(C)on4)c(Cl)c3)c2cc1OC [Tivozanib] | 107% | 55.9% | 96.8% | 40.7% | 28.3% | 82.9% | 118% | 67.6% | 94% | 80% | 51.9% | 92.8% | 2.36 | 0 | 0.494 | 3.77 | 2.11 | 5.92 | 2.1 | 0 | 2.51 | 10.4 | 5.3 | 0 | 0 | 1.12 | 0 |

From the supplement of paper PMC4862054
